“And” between values parts separate entries of the source, which are not always exact repeats. Equal entries are not always repeated.
Key:
Assay in all cases: radiometric filter-binding kinase assay, Kinase HotSpot
Conditions in all cases: compound 0.5 µM; ATP 10 µM
TTK (human) = TTK (human) (UniProt P33981)
LYN (human) = LYN (human) (UniProt P07948)
PDGFRB (human) = PDGFRB (human) (UniProt P09619)
CSNK1D (human) = CSNK1D (human) (UniProt P48730)
PLK3 (human) = PLK3 (human) (UniProt Q9H4B4)
RAF1 (human) = RAF1 (human) (UniProt P04049)
RPS6KB2 (human) = RPS6KB2 (human) (UniProt Q9UBS0)
CSNK1G1 (human) = CSNK1G1 (human) (UniProt Q9HCP0)
CAMK2D (human) = CAMK2D (human) (UniProt Q13557)
IKBKB (human) = IKBKB (human) (UniProt O14920)
Chain of IKBKB (human) (O14920 whole entry, looked up): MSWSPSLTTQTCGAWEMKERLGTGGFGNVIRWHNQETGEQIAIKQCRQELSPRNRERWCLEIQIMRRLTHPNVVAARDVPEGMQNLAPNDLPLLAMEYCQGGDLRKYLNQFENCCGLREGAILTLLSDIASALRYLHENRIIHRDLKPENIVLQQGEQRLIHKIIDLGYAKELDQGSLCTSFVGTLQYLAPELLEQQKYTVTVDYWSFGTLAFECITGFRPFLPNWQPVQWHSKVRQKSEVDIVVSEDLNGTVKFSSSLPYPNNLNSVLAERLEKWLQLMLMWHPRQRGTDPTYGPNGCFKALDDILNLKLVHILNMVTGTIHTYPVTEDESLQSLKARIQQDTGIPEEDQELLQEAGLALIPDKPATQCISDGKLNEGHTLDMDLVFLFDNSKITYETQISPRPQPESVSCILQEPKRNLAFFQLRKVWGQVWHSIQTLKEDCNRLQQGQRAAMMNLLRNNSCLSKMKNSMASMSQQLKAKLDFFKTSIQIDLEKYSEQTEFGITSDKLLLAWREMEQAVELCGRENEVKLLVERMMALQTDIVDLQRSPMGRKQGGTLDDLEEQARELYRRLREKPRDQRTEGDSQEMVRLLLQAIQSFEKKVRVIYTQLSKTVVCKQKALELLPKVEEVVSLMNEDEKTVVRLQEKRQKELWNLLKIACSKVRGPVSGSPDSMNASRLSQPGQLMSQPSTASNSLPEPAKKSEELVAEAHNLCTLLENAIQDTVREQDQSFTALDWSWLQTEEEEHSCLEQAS

FYN (human) = FYN (human) (UniProt P06241)
STK24 (human) = STK24 (human) (UniProt Q9Y6E0)
STK16 (human) = STK16 (human) (UniProt O75716)
MAPK12 (human) = MAPK12 (human) (UniProt P53778)
SGK3 (human) = SGK3 (human) (UniProt Q96BR1)
EPHA5 (human) = EPHA5 (human) (UniProt P54756)
CAMK1D (human) = CAMK1D (human) (UniProt Q8IU85)
Chain of CAMK1D (human) (Q8IU85 whole entry, looked up): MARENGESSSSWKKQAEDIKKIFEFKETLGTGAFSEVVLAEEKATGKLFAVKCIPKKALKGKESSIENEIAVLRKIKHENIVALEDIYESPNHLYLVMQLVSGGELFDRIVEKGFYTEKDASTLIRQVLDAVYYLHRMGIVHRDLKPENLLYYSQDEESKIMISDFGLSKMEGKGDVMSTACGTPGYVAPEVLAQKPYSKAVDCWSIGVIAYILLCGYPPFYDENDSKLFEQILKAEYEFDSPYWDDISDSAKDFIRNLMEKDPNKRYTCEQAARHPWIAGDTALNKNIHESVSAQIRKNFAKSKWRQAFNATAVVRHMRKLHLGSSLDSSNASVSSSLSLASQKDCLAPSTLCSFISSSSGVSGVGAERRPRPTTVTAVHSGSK

CDC42BPB (human) = CDC42BPB (human) (UniProt Q9Y5S2)
CSNK1G3 (human) = CSNK1G3 (human) (UniProt Q9Y6M4)
EPHB3 (human) = EPHB3 (human) (UniProt P54753)
TSSK1B (human) = TSSK1B (human) (UniProt Q9BXA7)
WEE1 (human) = WEE1 (human) (UniProt P30291)
EPHA6 (human) = EPHA6 (human) (UniProt Q9UF33)
MYLK (human) = MYLK (human) (UniProt Q15746)
HIPK2 (human) = HIPK2 (human) (UniProt Q9H2X6)
MAPK14 (human) = MAPK14 (human) (UniProt Q16539)
Chain of MAPK14 (human) (Q16539 whole entry, looked up): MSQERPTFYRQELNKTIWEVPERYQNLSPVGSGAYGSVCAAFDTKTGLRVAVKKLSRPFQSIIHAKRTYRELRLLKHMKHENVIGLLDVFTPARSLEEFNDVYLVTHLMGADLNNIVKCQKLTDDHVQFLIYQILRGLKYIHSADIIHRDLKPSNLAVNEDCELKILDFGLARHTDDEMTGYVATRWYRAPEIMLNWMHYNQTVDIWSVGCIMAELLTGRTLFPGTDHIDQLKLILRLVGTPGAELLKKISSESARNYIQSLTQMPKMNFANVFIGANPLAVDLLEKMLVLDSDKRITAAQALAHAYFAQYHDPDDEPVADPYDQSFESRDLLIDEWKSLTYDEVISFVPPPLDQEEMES

ZAP70 (human) = ZAP70 (human) (UniProt P43403)
Chain of ZAP70 (human) (P43403 whole entry, looked up): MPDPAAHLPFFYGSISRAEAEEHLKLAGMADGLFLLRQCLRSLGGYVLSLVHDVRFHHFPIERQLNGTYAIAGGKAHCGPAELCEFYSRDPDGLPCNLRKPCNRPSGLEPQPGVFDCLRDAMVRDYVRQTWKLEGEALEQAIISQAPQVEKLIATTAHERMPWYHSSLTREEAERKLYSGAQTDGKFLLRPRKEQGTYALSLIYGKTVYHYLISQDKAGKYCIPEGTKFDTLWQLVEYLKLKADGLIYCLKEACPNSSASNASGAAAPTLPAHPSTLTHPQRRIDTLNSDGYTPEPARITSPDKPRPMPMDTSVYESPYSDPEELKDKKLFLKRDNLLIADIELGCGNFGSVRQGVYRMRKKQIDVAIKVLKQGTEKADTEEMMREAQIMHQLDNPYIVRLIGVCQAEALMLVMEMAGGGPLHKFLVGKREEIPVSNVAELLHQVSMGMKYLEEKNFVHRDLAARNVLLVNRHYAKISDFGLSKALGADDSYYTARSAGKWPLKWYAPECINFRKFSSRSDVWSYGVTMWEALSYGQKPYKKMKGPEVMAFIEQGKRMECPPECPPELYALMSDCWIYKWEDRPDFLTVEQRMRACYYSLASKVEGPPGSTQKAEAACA

IGF1R (human) = IGF1R (human) (UniProt P08069)
CAMK2B (human) = CAMK2B (human) (UniProt Q13554)
STK4 (human) = STK4 (human) (UniProt Q13043)
MAP4K4 (human) = MAP4K4 (human) (UniProt O95819)
TBK1 (human) = TBK1 (human) (UniProt Q9UHD2)
FER (human) = FER (human) (UniProt P16591)
MAP3K3 (human) = MAP3K3 (human) (UniProt Q99759)
NTRK1 (human) = NTRK1 (human) (UniProt P04629)
Chain of NTRK1 (human) (P04629 whole entry, looked up): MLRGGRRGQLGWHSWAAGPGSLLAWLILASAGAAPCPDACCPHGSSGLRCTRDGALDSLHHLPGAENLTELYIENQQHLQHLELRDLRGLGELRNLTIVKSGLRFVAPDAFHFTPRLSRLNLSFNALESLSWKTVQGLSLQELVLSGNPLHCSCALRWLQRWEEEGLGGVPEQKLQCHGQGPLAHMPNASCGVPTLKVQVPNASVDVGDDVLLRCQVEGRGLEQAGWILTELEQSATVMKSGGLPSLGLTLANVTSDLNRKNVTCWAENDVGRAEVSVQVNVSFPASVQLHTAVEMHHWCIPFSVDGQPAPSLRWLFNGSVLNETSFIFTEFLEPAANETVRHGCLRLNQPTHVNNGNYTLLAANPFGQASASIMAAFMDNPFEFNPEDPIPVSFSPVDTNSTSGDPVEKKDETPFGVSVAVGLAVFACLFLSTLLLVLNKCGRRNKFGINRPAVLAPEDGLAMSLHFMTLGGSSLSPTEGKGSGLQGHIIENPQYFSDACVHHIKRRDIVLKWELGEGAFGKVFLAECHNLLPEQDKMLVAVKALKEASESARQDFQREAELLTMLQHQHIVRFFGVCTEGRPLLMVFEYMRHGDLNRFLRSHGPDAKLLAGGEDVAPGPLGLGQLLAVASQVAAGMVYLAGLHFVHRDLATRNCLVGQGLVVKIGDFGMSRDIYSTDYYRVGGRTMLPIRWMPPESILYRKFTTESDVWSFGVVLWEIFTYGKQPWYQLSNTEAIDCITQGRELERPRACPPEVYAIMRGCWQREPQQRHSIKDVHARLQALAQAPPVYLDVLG

FES (human) = FES (human) (UniProt P07332)
EPHA8 (human) = EPHA8 (human) (UniProt P29322)
CDK2 CCNA2 (human) = CDK2 CCNA2 (human) (UniProt P24941+P20248)
MAPKAPK5 (human) = MAPKAPK5 (human) (UniProt Q8IW41)
CDK2 CCNE1 (human) = CDK2 CCNE1 (human) (UniProt P24941+P24864)
Chain of CDK2 CCNE1 (human) (P24864 whole entry, looked up, other chains not shown): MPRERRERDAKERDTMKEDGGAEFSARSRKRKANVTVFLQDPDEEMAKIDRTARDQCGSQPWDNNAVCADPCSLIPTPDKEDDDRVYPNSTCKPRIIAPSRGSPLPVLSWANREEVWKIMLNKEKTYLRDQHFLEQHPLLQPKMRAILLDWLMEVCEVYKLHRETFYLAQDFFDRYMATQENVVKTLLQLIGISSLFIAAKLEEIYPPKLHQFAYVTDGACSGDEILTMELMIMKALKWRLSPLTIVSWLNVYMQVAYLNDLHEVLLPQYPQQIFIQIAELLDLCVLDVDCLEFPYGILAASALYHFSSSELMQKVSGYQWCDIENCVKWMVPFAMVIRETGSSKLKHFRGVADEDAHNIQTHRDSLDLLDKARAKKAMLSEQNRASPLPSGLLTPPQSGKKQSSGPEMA

FGFR3 (human) = FGFR3 (human) (UniProt P22607)
CAMK1G (human) = CAMK1G (human) (UniProt Q96NX5)

Chain of LYN (human) (P07948 whole entry, looked up): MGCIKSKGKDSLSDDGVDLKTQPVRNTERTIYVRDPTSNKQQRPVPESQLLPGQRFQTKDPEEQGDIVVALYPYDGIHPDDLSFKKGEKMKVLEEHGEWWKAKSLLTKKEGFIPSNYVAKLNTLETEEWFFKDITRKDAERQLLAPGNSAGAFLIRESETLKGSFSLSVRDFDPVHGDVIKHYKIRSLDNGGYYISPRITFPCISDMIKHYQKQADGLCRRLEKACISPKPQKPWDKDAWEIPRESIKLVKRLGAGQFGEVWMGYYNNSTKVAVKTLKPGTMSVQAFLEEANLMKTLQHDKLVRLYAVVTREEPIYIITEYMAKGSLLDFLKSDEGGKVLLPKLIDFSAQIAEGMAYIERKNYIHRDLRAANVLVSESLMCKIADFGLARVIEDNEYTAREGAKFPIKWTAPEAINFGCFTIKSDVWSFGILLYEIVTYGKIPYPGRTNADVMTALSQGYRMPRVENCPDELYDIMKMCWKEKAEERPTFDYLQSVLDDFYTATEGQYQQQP
Chain of PDGFRB (human) (P09619 whole entry, looked up): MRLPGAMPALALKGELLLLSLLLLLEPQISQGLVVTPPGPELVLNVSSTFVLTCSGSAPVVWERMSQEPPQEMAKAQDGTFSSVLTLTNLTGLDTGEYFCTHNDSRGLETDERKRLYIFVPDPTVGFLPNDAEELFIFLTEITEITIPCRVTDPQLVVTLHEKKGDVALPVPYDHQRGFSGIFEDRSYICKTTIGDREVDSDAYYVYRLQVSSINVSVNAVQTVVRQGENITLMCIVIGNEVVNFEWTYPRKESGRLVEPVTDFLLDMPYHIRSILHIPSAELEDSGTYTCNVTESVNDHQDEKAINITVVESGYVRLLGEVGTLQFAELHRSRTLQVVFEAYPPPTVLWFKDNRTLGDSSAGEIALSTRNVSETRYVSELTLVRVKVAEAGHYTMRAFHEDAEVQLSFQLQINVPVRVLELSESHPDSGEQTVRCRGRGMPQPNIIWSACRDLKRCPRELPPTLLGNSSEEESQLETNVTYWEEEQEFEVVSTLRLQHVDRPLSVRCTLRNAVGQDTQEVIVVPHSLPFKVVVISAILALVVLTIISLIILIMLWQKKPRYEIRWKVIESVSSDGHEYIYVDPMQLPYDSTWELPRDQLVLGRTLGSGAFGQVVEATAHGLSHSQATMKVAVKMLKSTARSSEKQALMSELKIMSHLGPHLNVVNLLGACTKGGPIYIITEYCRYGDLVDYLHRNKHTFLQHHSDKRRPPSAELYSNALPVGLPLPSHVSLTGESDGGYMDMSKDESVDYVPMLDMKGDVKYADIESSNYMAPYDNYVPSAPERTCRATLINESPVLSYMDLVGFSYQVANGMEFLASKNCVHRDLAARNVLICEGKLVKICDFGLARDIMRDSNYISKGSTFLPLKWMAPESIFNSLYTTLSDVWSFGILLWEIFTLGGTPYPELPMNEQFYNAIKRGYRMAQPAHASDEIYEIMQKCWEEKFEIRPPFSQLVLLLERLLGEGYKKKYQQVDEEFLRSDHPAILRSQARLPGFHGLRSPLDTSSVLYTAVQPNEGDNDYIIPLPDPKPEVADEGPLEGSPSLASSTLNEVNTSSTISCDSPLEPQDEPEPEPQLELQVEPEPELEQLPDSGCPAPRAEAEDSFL

For `c1ccc(-c2n[nH]cc2-c2ccnc3ccccc23)nc1`, the residual activity (TTK (human)) was 97.4%, the residual activity (LYN (human)) was 100% and 87.8% and the residual activity (PDGFRB (human)) was 106%. The residual activity (CSNK1D (human)) was 44.2%, the residual activity (PLK3 (human)) was 91.7% and the residual activity (RAF1 (human)) was 89.5%. The residual activity (RPS6KB2 (human)) was 101%, the residual activity (CSNK1G1 (human)) was 92.2% and the residual activity (CAMK2D (human)) was 101%. It also gave a residual activity (IKBKB (human)) of 105%, a residual activity (FYN (human)) of 110% and a residual activity (STK24 (human)) of 96.8%. The residual activity (STK16 (human)) was 100%, the residual activity (MAPK12 (human)) was 106% and the residual activity (SGK3 (human)) was 97.4%. The residual activity (EPHA5 (human)) was 94.9%, the residual activity (CAMK1D (human)) was 100% and the residual activity (CDC42BPB (human)) was 102%. The residual activity (CSNK1G3 (human)) was 96%, the residual activity (EPHB3 (human)) was 97.1% and the residual activity (TSSK1B (human)) was 104%. It also gave a residual activity (WEE1 (human)) of 91.1%, a residual activity (EPHA6 (human)) of 98.8% and a residual activity (MYLK (human)) of 105%. The residual activity (HIPK2 (human)) was 91.3%, the residual activity (MAPK14 (human)) was 96% and the residual activity (ZAP70 (human)) was 100%. The residual activity (IGF1R (human)) was 102%, the residual activity (CAMK2B (human)) was 97.2% and the residual activity (STK4 (human)) was 101%. It also gave a residual activity (MAP4K4 (human)) of 48.3%, a residual activity (TBK1 (human)) of 92.6% and a residual activity (FER (human)) of 86%. The residual activity (MAP3K3 (human)) was 79.4%, the residual activity (NTRK1 (human)) was 102% and the residual activity (FES (human)) was 111%. The residual activity (EPHA8 (human)) was 94.6%, the residual activity (CDK2 CCNA2 (human)) was 98.7% and the residual activity (MAPKAPK5 (human)) was 95.6%. It also gave a residual activity (CDK2 CCNE1 (human)) of 91.3%, a residual activity (FGFR3 (human)) of 97.4% and a residual activity (CAMK1G (human)) of 102%.
In the case of `CCC(=O)Nc1ccc2ncnc(Nc3cccc(Br)c3)c2c1`, the residual activity (TTK (human)) is reported as 113%, the residual activity (LYN (human)) is reported as 82.6% and 87.7% and the residual activity (PDGFRB (human)) is reported as 98%. The residual activity (CSNK1D (human)) was 96.9%, the residual activity (PLK3 (human)) was 93.2% and the residual activity (RAF1 (human)) was 98.4%. The residual activity (RPS6KB2 (human)) was 94.9%, the residual activity (CSNK1G1 (human)) was 98.6% and the residual activity (CAMK2D (human)) was 113%. It also gave a residual activity (IKBKB (human)) of 94.9%, a residual activity (FYN (human)) of 107% and a residual activity (STK24 (human)) of 102%. It also gave a residual activity (STK16 (human)) of 99.6%, a residual activity (MAPK12 (human)) of 103% and a residual activity (SGK3 (human)) of 92.8%. For the same molecule, the residual activity (EPHA5 (human)) was 101%, the residual activity (CAMK1D (human)) was 104% and the residual activity (CDC42BPB (human)) was 114%. It also gave a residual activity (CSNK1G3 (human)) of 91.6%, a residual activity (EPHB3 (human)) of 89.4% and a residual activity (TSSK1B (human)) of 73.2%. For the same molecule, the residual activity (WEE1 (human)) was 80.2%, the residual activity (EPHA6 (human)) was 79.5% and the residual activity (MYLK (human)) was 95.5%. It also gave a residual activity (HIPK2 (human)) of 97%, a residual activity (MAPK14 (human)) of 82.8% and a residual activity (ZAP70 (human)) of 113%. The residual activity (IGF1R (human)) was 87.6%, the residual activity (CAMK2B (human)) was 105% and the residual activity (STK4 (human)) was 97.1%. For the same molecule, the residual activity (MAP4K4 (human)) was 91.1%, the residual activity (TBK1 (human)) was 95.6% and the residual activity (FER (human)) was 95.6%. For the same molecule, the residual activity (MAP3K3 (human)) was 89.8%, the residual activity (NTRK1 (human)) was 95.8% and the residual activity (FES (human)) was 102%. The residual activity (EPHA8 (human)) was 96.6%, the residual activity (CDK2 CCNA2 (human)) was 95.1% and the residual activity (MAPKAPK5 (human)) was 105%. For the same molecule, the residual activity (CDK2 CCNE1 (human)) was 84.9%, the residual activity (FGFR3 (human)) was 93.2% and the residual activity (CAMK1G (human)) was 92.1%.
